PMC7686308, “Overcoming the blood–brain barrier by Annexin A1-binding peptide to target brain tumours” (British Journal of Cancer, 2020)
“Also recorded” adds a separate entry of the source. Peptide text beside a SMILES is read from it. * marks the point of attachment. X1 = CCc1c2c(nc3ccc(OC(=O)C4CCC(CNC(=O)C5CCC(CN6C(=O)CC(*)C6=O)CC5)CC4)cc13)-c1cc3c(c(=O)n1C2)COC(=O)[C@]3(O)CC

Tests used:
[1] = tested on: C6-Luc brain and subcutaneous tumours; test: C6-Luc dual-tumour model in NOD-SCID mice; type: in vivo, rat tumour cells in NOD-SCID mice
Description: (§1) C6-Luc cells (5 × 10^4 suspended in 2 μl PBS) were injected into C57BL/6 mouse brain striatum using a stereotaxic frame as described previously.[21] Seven days later, mice underwent imaging for luciferase-expressing tumours. To do so, 100 μl luciferin (30 mg/ml PBS) was injected peritoneally. Mice were then anesthetised under isoflurane gas (20 ml/min) supplemented with oxygen (1 ml/min) and placed under a camera equipped with a Xenogen IVIS 200 imager at both the SBP and AIST animal facilities. Photon numbers were measured for 1–10 sec or for 1 min. For the dual-tumour model, C6-Luc cells were similarly injected into the brain of NOD-SCID mice. When a brain tumour became detectable by IVIS imager, C6-Luc cells (2 × 10^5 suspended in 100 μl PBS) were injected subcutaneously into the dorsal flank of the same mice. Photon numbers in brain and subcutaneous tumours were measured using the IVIS imager. The dual-tumour model was also produced using B16-Luc cells in the isogeneic C57BL/6 mouse. B16-Luc cells (5 × 10^4) were injected into brains of 8–10-weeks-old C57BL/6 female mice as described above for C6-Luc cells. When brain tumours became detectable, B16-Luc cells (2 × 10^5 cells) were injected subcutaneously into the dorsal flank of the same mouse. […]
Next, to compare drug dosages required to suppress growth of brain versus subcutaneous tumours in vivo, we undertook experiments with a dual-tumour model, in which a single SCID mouse received C6-Luc cells both in brain and under the skin (Fig. 4a, Supplementary Fig. 8A). Mice were then injected intravenously with IF7C(RR)-SN38 and tumour growth in both locations was assessed in vivo by photon number.
Fig. 4 Effect of IF7C(RR)-SN38 on the dual-tumour model mice. a Dual-tumour model was established with C6-Luc cells in NOD-SCID mice. […] Growth of B16-Luc cells were monitored as in a similar manner as in a, followed by intravenous injection with either IF7C(RR)-SN38 (7.0 μmoles/kg), irinotecan (CPT-11) (50 μmoles/kg) or buffer control daily for 6 days. […] Statistical analysis was assessed by Student’s t-test.

[2] = tested on: B16-Luc brain and subcutaneous tumours; test: B16-Luc dual-tumour model in C57BL/6 mice; type: in vivo, mouse (C57BL/6)
Description: (§2) C6-Luc cells (5 × 10^4 suspended in 2 μl PBS) were injected into C57BL/6 mouse brain striatum using a stereotaxic frame as described previously.[21] Seven days later, mice underwent imaging for luciferase-expressing tumours. To do so, 100 μl luciferin (30 mg/ml PBS) was injected peritoneally. Mice were then anesthetised under isoflurane gas (20 ml/min) supplemented with oxygen (1 ml/min) and placed under a camera equipped with a Xenogen IVIS 200 imager at both the SBP and AIST animal facilities. Photon numbers were measured for 1–10 sec or for 1 min. For the dual-tumour model, C6-Luc cells were similarly injected into the brain of NOD-SCID mice. When a brain tumour became detectable by IVIS imager, C6-Luc cells (2 × 10^5 suspended in 100 μl PBS) were injected subcutaneously into the dorsal flank of the same mice. Photon numbers in brain and subcutaneous tumours were measured using the IVIS imager. The dual-tumour model was also produced using B16-Luc cells in the isogeneic C57BL/6 mouse. B16-Luc cells (5 × 10^4) were injected into brains of 8–10-weeks-old C57BL/6 female mice as described above for C6-Luc cells. When brain tumours became detectable, B16-Luc cells (2 × 10^5 cells) were injected subcutaneously into the dorsal flank of the same mouse.
(§3) IF7C(RR)-SN38 was injected intravenously through the tail vein into tumour-bearing mice once photon number of C6-Luc brain tumour reached 5 × 10^4, which usually occurred after 2 weeks. IF7C(RR)-SN38 (142 μg or 0.0567 μmoles) dissolved in 10 μl dimethylsulfoxide (DMSO) diluted with 100 μl of 50% Cremophore EL in ethanol plus 90 μl PBS was injected intravenously through the tail vein. As the average body weight of a mouse was 18 g, IF7C(RR)-SN38 dose per injection was 3.15 μmoles/kg. For B16-Luc brain tumours, IF7C(RR)-SN38 formulated with Cremophore EL was used at the dosage 7.0 μmoles/kg. Irinotecan (CPT-11), a water soluble SN38 prodrug, was dissolved in PBS and intravenously injected into mice at 50 μmoles /kg. In another set of experiments, brain tumour-bearing mice were treated with IF7C(RR)-SN38 (100 μg or 0.0412 μmoles) dissolved in 10 μl DMSO followed by dilution with 100 μl 10% Solutol HS15 in water. In that case, drug dosage was 2.5 μmoles/kg. Similarly formulated C(RR)-SN38 served as control.
Fig. 4 Effect of IF7C(RR)-SN38 on the dual-tumour model mice. a Dual-tumour model was established with C6-Luc cells in NOD-SCID mice. C6-Luc cells were grown both in brain and under the skin of mice. When tumours in brain and subcutaneous grew by showing photon number more than 2×10^4, IF7C(RR)-SN38 (3.15 μmoles/kg) was injected intravenously daily through tail vein for 9 days. b Effect of IF7C(RR)-SN38 on a dual-tumour model with B16-Luc melanoma cells in C57BL/6 mice. Growth of B16-Luc cells were monitored as in a similar manner as in a, followed by intravenous injection with either IF7C(RR)-SN38 (7.0 μmoles/kg), irinotecan (CPT-11) (50 μmoles/kg) or buffer control daily for 6 days. The drug was diluted in Cremophore EL. In each a and b, error bars denote means ± SEM. Statistical analysis was assessed by Student’s t-test.

LL/2-Luc cells = test: LL/2-Luc rechallenge of brain tumour-recovered mice; type: in vivo, mouse (C57BL/6); conditions: mice recovered from brain B16-Luc tumours after treatment; 4 days after s.c. injection
Description: (§4) The presence of tumour-infiltrating lymphocytes, especially CD8^+ cytotoxic T cells, is correlated with better prognosis of various cancers.[32],[33] To assess possible involvement of cytotoxic T cells in an antitumour response by host mice, we injected two isogenic cell lines, B16-Luc and LL/2-Luc, into naïve C57BL/6 mice and also into C57BL/6 mice that recovered from brain B16-Luc tumours following IF7C(RR)-SN38 treatment. When these cells were injected subcutaneously in a naïve mouse, both lines formed tumours (Fig. 6a, left).
(§5) Fig. 6 Immunological rejection of the cancer cells from the mouse recovered from brain tumour by IF7C(RR)-SN38 therapy. a Growth of two syngeneic cancer lines in naïve and brain tumour-recovered mice 4 days after subcutaneous injection of LL/2-Luc or B16-Luc cells. b Immunohistochemistry with anti-CD8 antibody of B16-Luc cells at subcutaneous injection sites, 20 h after B16-Luc cell injection. Scale bars: 100 μm. c Quantitative analysis of CD8^+ cells in subcutaneous injection sites.

[3] = LC-MS/MS analysis of SN38 in brain tumours; type: in vivo, mouse; conditions: mice intravenously injected with IF7C(RR)-SN38
C6 cells = test: Cytotoxicity on C6 cells (CellTiter Glo); type: cell-based, rat
Description: (§6) Drug concentration (OM) Drug concentration ( nM) […]
(§7) Supplementary Fig 7 . Cytotoxicity of peptide-conjugated SN38, free peptide s and unconjugated SN-38 and irinotecan (CPT-11) on C6 and B16 cells cultured in vitro. Rat glioma C6 and mouse melanoma B16 cells were treated with reagents shown along the top panels at the concentration indicated and cultured for 2 days. Cell viability was determined by a CellTiter Glo (Promega) assay. The IC50 of each reagent was determined using GraphPad Prism program. N.D.: not determined.

B16-Luc brain tumours = test: B16-Luc brain tumour in C57BL/6 mice, Solutol HS15 formulation; type: in vivo, mouse (C57BL/6); conditions: 2.5 μmoles/kg i.v. daily for 7 days
Description: as §2, §3
Fig. 5 Therapeutic effect of IF7C(RR)-SN38 formulated with Solutol HS15. a Effect of IF7C(RR)-SN38 on B16-Luc brain tumours in C57BL/6 mice. b Effect of IF7C(RR)-SN38 on C6-Luc brain tumours in nude mice. In these experiments, drug dosage was 2.5 μmoles/kg each for IF7C(RR)-SN38 or C(RR)-SN38 (control), diluted with 10% Solutol HS15 in water and administered daily for 7 days. Note that the B16 brain tumours continued shrinking after ceasing administration of IF7C(RR)-SN38 in C57BL/6 mice. In each a and b, error bars denote means ± SEM. Statistical analysis was assessed by Student’s t-test.

B16-Luc cells = test: B16-Luc rechallenge of brain tumour-recovered mice; type: in vivo, mouse (C57BL/6); conditions: mice recovered from brain B16-Luc tumours after treatment; 4 days after s.c. injection
Description: as §4, §5

B16 cells = test: Cytotoxicity on B16 cells (CellTiter Glo); type: cell-based, mouse
Description: as §6, §7

CD8+ T cells = test: CD8+ cell infiltration at B16-Luc injection site (immunohistochemistry); type: in vivo, mouse (C57BL/6); conditions: recovered C57BL/6 mice; 20 h after B16-Luc s.c. injection (naïve: 0.2 cells/HPF)
Description: as §5

C6-Luc brain tumours = test: C6-Luc brain tumour in nude mice, Solutol HS15 formulation; type: in vivo, rat tumour cells in nude mice; conditions: 2.5 μmoles/kg i.v. daily for 7 days, 10% Solutol HS15
Description: as §1, with “cells.” for “cells. When brain tumours became detectable, B16-Luc cells (2 × 10^5 cells) were injected subcutaneously into the dorsal flank of the same mouse.”
Fig. 5 Therapeutic effect of IF7C(RR)-SN38 formulated with Solutol HS15. a Effect of IF7C(RR)-SN38 on B16-Luc brain tumours in C57BL/6 mice. b Effect of IF7C(RR)-SN38 on C6-Luc brain tumours in nude mice. […] Statistical analysis was assessed by Student’s t-test.

[4] = 3.15 μmoles/kg i.v. daily, 9 days, Cremophore EL
[5] = 7.0 μmoles/kg i.v. daily, 6 days, Cremophore EL

## CCc1c2c(nc3ccc(OC(=O)C4CCC(CNC(=O)C5CCC(CN6C(=O)CC(SC[C@H](NC(=O)[C@H](CCCNC(=N)N)NC(=O)[C@H](CCC(N)=O)NC(=O)[C@H](Cc7c[nH]c8ccccc78)NC(=O)[C@H](CC(C)C)NC(=O)[C@H](CC(C)C)NC(=O)[C@H](Cc7ccccc7)NC(=O)[C@@H](N)[C@@H](C)CC)C(=O)N[C@@H](CCCNC(=N)N)C(=O)N[C@@H](CCCNC(=N)N)C(=O)O)C6=O)CC5)CC4)cc13)-c1cc3c(c(=O)n1C2)COC(=O)[C@]3(O)CC (stereo partly drawn) [IF7C(RR)-SN38] (H-IFLLWQRC(X1)RR-OH; N-terminus and C-terminus assumed)
[1]; [4]
  brain tumour growth (photon number): significantly suppressed tumour growth relative to buffer controls
  subcutaneous tumour growth (photon number): significantly suppressed tumour growth relative to buffer controls
[1]; 3.15 μmoles/kg, C6-Luc, NOD-SCID
  brain versus subcutaneous tumour effect: effect of IF7C(RR)-SN38 on brain tumours is comparable to that on subcutaneous tumours
[2]; [5]
  brain tumour growth (photon number): significantly antagonised growth of both brain and subcutaneous tumours compared to buffer controls
  subcutaneous tumour growth (photon number): significantly antagonised growth of both brain and subcutaneous tumours compared to buffer controls
[2]; 7.0 μmoles/kg, B16-Luc, C57BL/6
  brain versus subcutaneous tumour effect: effect of IF7C(RR)-SN38 on brain tumours is comparable to that on subcutaneous tumours
LL/2-Luc cells
  LL/2-Luc tumour formation after s.c. challenge: LL/2-Luc tumours grew
[3]
  SN38 in brain tumours: did not detect SN38 in brain tumours
C6 cells; C6, 2 days, CellTiter Glo, GraphPad Prism
  logIC50: 1.812
C6 cells; in vitro, C6 cells
  cytotoxic activity compared with free SN38: comparable to those of free SN38
B16-Luc brain tumours; 10% Solutol HS15
  B16-Luc brain tumour response during the first week: tumours began shrinking during the first week of daily injections
  B16-Luc brain tumour, final outcome: completely disappeared; also recorded: complete disappearance of brain tumours
  survival after cessation of treatment without signs of B16-Luc cell growth: more than 3 months
B16-Luc brain tumours; 10% Solutol HS15 in water
  therapeutic effect with Solutol HS15 relative to Cremophore EL: significantly improved
B16-Luc brain tumours; then no drug
  B16-Luc brain tumour response, second week without injection: continued shrinking during the second week without drug injection
B16-Luc cells
  B16-Luc tumour formation after s.c. rechallenge: B16-Luc tumours did not appear
B16 cells; B16, 2 days, CellTiter Glo, GraphPad Prism
  logIC50: 2.171
B16 cells; in vitro, B16 cells
  cytotoxic activity compared with free SN38: comparable to those of free SN38
CD8+ T cells
  CD8+ cell infiltration at injection sites: 92.2 cells/HPF
C6-Luc brain tumours
  C6-Luc brain tumour growth: suppressed the tumour growth
  complete disappearance of C6-Luc brain tumours: did not promote complete disappearance of brain tumours
